Laboratory results from ChEMBL document CHEMBL1201862, “PubChem BioAssay data set” (2004).
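48-hour exposure; five concentrations; linearly interpolated endpoints. At the GI50, growth is halved.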 Calls of active or inactive are those of the source. Rule as the data show it: active = GI50 up to about 1.1 µM and inactive = higher.

How the values were obtained:
Assay in all cases: inhibition of tumour cell growth, NCI panel, 48 h
MDA-MB-435 = test system: MDA-MB-435
NCI-H522 = test system: NCI-H522
SN12C = test system: SN12C
T47D = test system: T47D
PC-3 = test system: PC-3
BT-549 = test system: BT-549
UO-31 = test system: UO-31
KM12 = test system: KM12
HCT-15 = test system: HCT-15
RPMI-8226 = test system: RPMI-8226
HT-29 = test system: HT-29
MCF7 = test system: MCF7
UACC-257 = test system: UACC-257
OVCAR-3 = test system: OVCAR-3
SK-MEL-5 = test system: SK-MEL-5
Hs-578T = test system: Hs-578T
786-0 = test system: 786-0
TK-10 = test system: TK-10
UACC-62 = test system: UACC-62
HL-60 = test system: HL-60
HOP-62 = test system: HOP-62
U-251 = test system: U-251
IGROV-1 = test system: IGROV-1
OVCAR-5 = test system: OVCAR-5
MOLT-4 = test system: MOLT-4
SF-539 = test system: SF-539
HCT-116 = test system: HCT-116
Malme-3M = test system: Malme-3M
SK-MEL-28 = test system: SK-MEL-28
NCI-H23 = test system: NCI-H23
K562 = test system: K562
OVCAR-8 = test system: OVCAR-8
COLO 205 = test system: COLO 205
MDA-MB-231 = test system: MDA-MB-231
SW-620 = test system: SW-620
SK-MEL-2 = test system: SK-MEL-2
NCI-H460 = test system: NCI-H460
EKVX = test system: EKVX
SNB-19 = test system: SNB-19
ACHN = test system: ACHN
SF-295 = test system: SF-295
HCC 2998 = test system: HCC 2998
MDA-N = test system: MDA-N
A549 = test system: A549
NCI/ADR-RES = test system: NCI/ADR-RES
LOX IMVI = test system: LOX IMVI
M14 = test system: M14
A498 = test system: A498
CCRF-CEM = test system: CCRF-CEM
NCI-H226 = test system: NCI-H226
DU-145 = test system: DU-145
CAKI-1 = test system: CAKI-1
RXF 393 = test system: RXF 393
HOP-92 = test system: HOP-92
SF-268 = test system: SF-268
OVCAR-4 = test system: OVCAR-4
SNB-75 = test system: SNB-75
SR = test system: SR
SK-OV-3 = test system: SK-OV-3

O=C1C(NCCc2ccc(O)c([N+](=O)[O-])c2)=CC(=O)c2[nH]cnc21
GI50 (MDA-MB-435): 18.6 µM (inactive)
GI50 (NCI-H522): 18.6 µM (inactive)
GI50 (SN12C): 26.2 µM (inactive)
GI50 (T47D): 18.5 µM (inactive)
GI50 (PC-3): 67 µM (inactive)
GI50 (BT-549): > 10 µM (inactive)
GI50 (UO-31): 76.9 µM (inactive)
GI50 (KM12): 42.9 µM (inactive)
GI50 (HCT-15): 39.7 µM
GI50 (RPMI-8226): 32.7 µM (inactive)
GI50 (HT-29): 34.6 µM (inactive)
GI50 (MCF7): 32 µM (inactive)
GI50 (UACC-257): 18.3 µM (inactive)
GI50 (OVCAR-3): 15.2 µM (inactive)
GI50 (SK-MEL-5): 16.2 µM (inactive)
GI50 (Hs-578T): 83.9 µM (inactive)
GI50 (786-0): 47.2 µM (inactive)
GI50 (TK-10): 36.1 µM (inactive)
GI50 (UACC-62): 20.8 µM (inactive)
GI50 (HL-60): 21.2 µM (inactive)
GI50 (HOP-62): 68.4 µM (inactive)
GI50 (U-251): 32.3 µM (inactive)
GI50 (IGROV-1): 29.9 µM (inactive)
GI50 (OVCAR-5): 33.3 µM (inactive)
GI50 (MOLT-4): 19.8 µM (inactive)
GI50 (SF-539): 38 µM (inactive)
GI50 (HCT-116): 24.7 µM (inactive)
GI50 (Malme-3M): 5.79 µM (inactive)
GI50 (SK-MEL-28): 14.3 µM (inactive)
GI50 (NCI-H23): 17.1 µM (inactive)
GI50 (K562): 18.4 µM (inactive)
GI50 (OVCAR-8): 25 µM (inactive)
GI50 (COLO 205): 43.8 µM (inactive)
GI50 (MDA-MB-231): 22.7 µM (inactive)
GI50 (SW-620): 44.6 µM (inactive)
GI50 (SK-MEL-2): 16 µM (inactive)
GI50 (NCI-H460): 24.8 µM (inactive)
GI50 (EKVX): 27.4 µM (inactive)
GI50 (SNB-19): 89.5 µM (inactive)
GI50 (ACHN): 44.3 µM (inactive)
GI50 (SF-295): 10.5 µM (inactive)
GI50 (HCC 2998): 51.5 µM (inactive)
GI50 (MDA-N): 16.3 µM (inactive)
GI50 (A549): 28.6 µM (inactive)
GI50 (NCI/ADR-RES): > 100 µM (inactive)
GI50 (LOX IMVI): 15.8 µM (inactive)
GI50 (M14): 15 µM (inactive)
GI50 (A498): 32.1 µM (inactive)

O=C(CSc1nc2ccc(I)cc2c(=O)n1Cc1ccccc1)NNC(=S)Nc1ccccc1
GI50 (MDA-MB-435): 41.3 µM (inactive)
GI50 (NCI-H522): 4.98 µM (inactive)
GI50 (SN12C): 3.9 µM (inactive)
GI50 (T47D): 23.5 µM (inactive)
GI50 (PC-3): 9.68 µM (inactive)
GI50 (BT-549): 80.5 µM (inactive)
GI50 (CCRF-CEM): 6.14 µM (inactive)
GI50 (KM12): 34.4 µM (inactive)
GI50 (HCT-15): 8.95 µM
GI50 (NCI-H226): 6.53 µM (inactive)
GI50 (RPMI-8226): 12.6 µM (inactive)
GI50 (DU-145): > 100 µM (inactive)
GI50 (HT-29): 41.5 µM (inactive)
GI50 (MCF7): 22.5 µM (inactive)
GI50 (UACC-257): 14.7 µM (inactive)
GI50 (OVCAR-3): 12.9 µM (inactive)
GI50 (SK-MEL-5): 13.8 µM (inactive)
GI50 (Hs-578T): 7.78 µM (inactive)
GI50 (786-0): 7.4 µM (inactive)
GI50 (TK-10): 61.8 µM (inactive)
GI50 (UACC-62): 33.4 µM (inactive)
GI50 (HL-60): 25.5 µM (inactive)
GI50 (U-251): 6.24 µM (inactive)
GI50 (CAKI-1): 3.33 µM (inactive)
GI50 (RXF 393): > 100 µM (inactive)
GI50 (IGROV-1): 2.91 µM (inactive)
GI50 (OVCAR-5): > 100 µM (inactive)
GI50 (HOP-92): 11.8 µM (inactive)
GI50 (MOLT-4): 6.08 µM (inactive)
GI50 (HCT-116): 8.63 µM (inactive)
GI50 (SK-MEL-28): > 100 µM (inactive)
GI50 (NCI-H23): 15.1 µM (inactive)
GI50 (K562): 11.3 µM (inactive)
GI50 (OVCAR-8): 3.11 µM (inactive)
GI50 (SF-268): 5.27 µM (inactive)
GI50 (COLO 205): 23.1 µM (inactive)
GI50 (SW-620): 33.6 µM (inactive)
GI50 (SK-MEL-2): 18 µM (inactive)
GI50 (NCI-H460): 5.47 µM (inactive)
GI50 (OVCAR-4): 6.53 µM (inactive)
GI50 (EKVX): 1.73 µM (inactive)
GI50 (SNB-19): 41.3 µM (inactive)
GI50 (ACHN): 18.9 µM (inactive)
GI50 (SF-295): 54 µM (inactive)
GI50 (HCC 2998): 43.3 µM (inactive)
GI50 (MDA-N): 30.3 µM (inactive)
GI50 (A549): 24.6 µM (inactive)
GI50 (NCI/ADR-RES): 77.6 µM (inactive)
GI50 (SNB-75): > 100 µM (inactive)
GI50 (LOX IMVI): > 100 µM (inactive)
GI50 (SR): 3.1 µM (inactive)
GI50 (M14): 62.2 µM (inactive)
GI50 (A498): 3.55 µM (inactive)
GI50 (SK-OV-3): > 100 µM (inactive)

CN(C)CC1CCCCCC(Br)C1=O (stereo not given)
GI50 (MDA-MB-435): 16 µM (inactive)
GI50 (NCI-H522): 3.66 µM (inactive)
GI50 (SN12C): 16.8 µM (inactive)
GI50 (T47D): 9.23 µM (inactive)
GI50 (PC-3): 21.3 µM (inactive)
GI50 (BT-549): 11.7 µM (inactive)
GI50 (UO-31): 13.6 µM (inactive)
GI50 (CCRF-CEM): 0.352 µM (active)
GI50 (KM12): 18.4 µM (inactive)
GI50 (HCT-15): 9.23 µM
GI50 (NCI-H226): 20.7 µM (inactive)
GI50 (RPMI-8226): 0.61 µM (active)
GI50 (DU-145): 12.1 µM (inactive)
GI50 (HT-29): 7.76 µM (inactive)
GI50 (MCF7): 2.71 µM (inactive)
GI50 (UACC-257): 9.93 µM (inactive)
GI50 (OVCAR-3): 7.38 µM (inactive)
GI50 (SK-MEL-5): 15.5 µM (inactive)
GI50 (Hs-578T): 17.1 µM (inactive)
GI50 (786-0): 2.25 µM (inactive)
GI50 (TK-10): 4.06 µM (inactive)
GI50 (UACC-62): 18.7 µM (inactive)
GI50 (HL-60): 6.12 µM (inactive)
GI50 (HOP-62): 24.8 µM (inactive)
GI50 (U-251): 19.6 µM (inactive)
GI50 (CAKI-1): 6.59 µM (inactive)
GI50 (RXF 393): 15.4 µM (inactive)
GI50 (IGROV-1): 28.2 µM (inactive)
GI50 (OVCAR-5): 17.2 µM (inactive)
GI50 (HOP-92): 5.66 µM (inactive)
GI50 (MOLT-4): 0.946 µM (active)
GI50 (SF-539): 17.3 µM (inactive)
GI50 (HCT-116): 2.05 µM (inactive)
GI50 (Malme-3M): 6.5 µM (inactive)
GI50 (SK-MEL-28): 15.9 µM (inactive)
GI50 (NCI-H23): 13.4 µM (inactive)
GI50 (K562): 2.02 µM (inactive)
GI50 (OVCAR-8): 13 µM (inactive)
GI50 (SF-268): 24.2 µM (inactive)
GI50 (COLO 205): 11.5 µM (inactive)
GI50 (MDA-MB-231): 16.1 µM (inactive)
GI50 (SW-620): 3.71 µM (inactive)
GI50 (SK-MEL-2): 20.7 µM (inactive)
GI50 (NCI-H460): 17.7 µM (inactive)
GI50 (OVCAR-4): 15 µM (inactive)
GI50 (EKVX): 15.1 µM (inactive)
GI50 (SNB-19): > 83.2 µM (inactive)
GI50 (ACHN): 6.79 µM (inactive)
GI50 (SF-295): > 64.6 µM (inactive)
GI50 (HCC 2998): 4.57 µM (inactive)
GI50 (A549): > 70.8 µM (inactive)
GI50 (NCI/ADR-RES): 13.9 µM (inactive)
GI50 (SNB-75): 37.2 µM (inactive)
GI50 (LOX IMVI): 12.7 µM (inactive)
GI50 (SR): 1.64 µM (inactive)
GI50 (M14): 15.6 µM (inactive)
GI50 (A498): 54.8 µM (inactive)
GI50 (SK-OV-3): > 100 µM (inactive)
